Reference: patent publication US10597398B2, “Suppression and regeneration promoting effect of low molecular weight compound on cancer and fibrosis” (NATIONAL UNIVERSITY CORPORATION TOTTORI UNIVERSITY, priority 2015, dated 2020)

Legend:
Type in all cases: cell-based, human
[1] = system: cancer stem cells (CD44) in HuH-7 cells; test: Inhibitory effect on cancer stem cells (FCM analysis of CD44), Example 2.4; details: for inhibitory effect on cancer stem cells compared with IC-2: comparison with IC-2
Protocol: CD44, a cancer stem cell marker, was used as an indicator to examine an inhibitory effect of each compound on cancer stem cells. The concentrations of the respective compounds were as described in FIG. 32. Each control sample used was 0.1% DMSO, a solvent for each compound. In the figures, the “‡” indicates a significant difference of p<0.01.
First, 70 to 90% confluent HuH-7 cells were harvested and seeded at 1.5×10^6 cells per 10-cm cell culture dish. After 24 h, each compound was added to the cells and the mixture was cultured at 37° C. At 48 h after the compound treatment, the cells were harvested from each culture dish. The cells were centrifuged at 1000 rpm and at 4° C. for 3 min to remove a supernatant and were then washed twice with 1 mL of 0.5% FBS/2 mM EDTA/PBS. Next, the cells were suspended in 500 μL of 5% BSA/0.5% FBS/2 mM EDTA/PBS for blocking at 4° C. for 15 min. Then, 5 μL of a mouse anti-human CD44 monoclonal antibody (156-3C11, Cell Signaling Technology Inc., Danvers, Mass.) was added to 500 μL of the cell suspension. The mixture was resuspended and subjected to a primary antibody reaction in a dark room at 4° C. for 30 min. After that, the cells were washed 3 times with 1 mL of 0.5% FBS/2 mM EDTA/PBS. Subsequently, 100 μL of Alexa Fluor 488-labeled IgG (H+L) (ab150113, Abcam Ltd., Cambridge, UK), which had been diluted 200-fold with 5% BSA/0.5% FBS/2 mM EDTA/PBS, was added and the cells were suspended. Then, a secondary antibody reaction was carried out in a dark room at 4° C. for 30 min. After that, the cells were washed 3 times with 1 mL of 0.5% FBS/2 mM EDTA/PBS. Thereafter, the cells were suspended in 500 μL of 0.5% FBS/2 mM EDTA/PBS and were made to pass through a 40 μm-mesh column (Becton, Dickinson and Company, Franklin Lakes, N.J.). A Beckman Coulter-Moflo XDP (Beckman Coulter Inc., Fullerton, Calif.) was used for analysis. Following the analysis, further analysis was conducted by adding 2 μL of 0.25 mg/mL Propidium Iodide (PI). The same experiment was repeated four times.

Wnt/β-catenin signaling [2] = test: Inhibitory effect on Wnt/β-catenin signaling in liver cancer cells (HuH7-TCF4 luciferase); details: concentration equal to or lower than that of IC-2
Protocol: A pTCF4-CMVpro-GL4.20 plasmid vector, which had been constructed by inserting 3 copies of TCF4 motifs (CCT TTG ATC) upstream of a CMV promoter into a multiple cloning site of pGL4.20 (Promega Corp., Fitchburg, Wis.), was linearized and stably transfected into the HuH-7 cells. The resulting stable cells (HuH7-TCF4 cells) and HuH-7 cells were likewise cultured.
While each compound was added at concentrations where the growth of HuH-7 cells was reduced to about 50% or less, Wnt/β-catenin signaling activity was measured. The concentrations of the respective compounds were as described in FIG. 40. Control samples used were 0.1% DMSO, a solvent for each compound, and 0.5 μM 5-FU.
First, 70 to 90% confluent HuH7-TCF4 cells were harvested and seeded (n=3) at 5.0×10^4 cells/well of a 24-well plate (TPP). After 24 h, each compound was added to the cells and the mixture was cultured at 37° C.
At 48 h after the compound treatment, the culture medium was discarded, and 100 μL of room temperature 5×Passive Lysis Buffer (PLB) (Promega Corp., Fitchburg, Wis.), which had been diluted 5-fold with MilliQ water, was added to each well. Next, the plate was shaken at room temperature for 15 min and was then frozen at −30° C. overnight. A Luciferase Assay Substrate was diluted with 10 mL of room temperature Luciferase Assay Buffer II to prepare Luciferase Assay Reagent II (LARII) (Promega). The frozen PLB lysate samples were thawed and permeabilized for 15 min. Then, 10 μL aliquots were added to wells of a 96-well white plate (Corning Inc., Corning, N.Y.). While 50 μL aliquots of LARII were each added to each well, luminescence was quantified by using a 1420 multi-label counter ARVO MX (PerkinElmer Singapore Pte Ltd., Singapore) to determine firefly luciferase activity. Note that a significant difference was evaluated by using (two-tailed) Student's t-test. The “*” in figures indicates a significant difference of p<0.05 between 0.1% DMSO and each compound; and the “**” indicates a significant difference of p<0.01 (the same applies to all the figures in Examples).

LX-2 cells [3] = test: Anti-fibrosis effect, summary statements on Example 3 (marker not specified); details: concentration even lower than that of IC-2
Excerpt: α-Smooth muscle actin (α-SMA), a fibrosis marker, was used as an indicator, and RNA was collected from LX-2 cells treated with each low-molecular-weight compound. Next, an inhibitory effect on fibrosis was examined by real-time RT-PCR.
In addition, instead of α-SMA, another fibrosis marker collagen, type I, alpha 1 (COL1A1) was used as an indicator, and substantially the same protocol was repeated. The concentrations of each compound used were as described in FIG. 34. Each control sample used was 0.1% DMSO, a solvent for each compound. Here, COL1A1 primers used were 5′-CCT CCA GGG CTC CAA CGA G-3′ and 5′-TCAATCACTGTCTTGCCCCA-3′. The annealing was performed at 58° C. for 5 sec. The measurement results were obtained by dividing the calculated value for the COL1A1 gene by the calculated value for the GAPDH gene.

HuH-7 cells = test: Growth inhibitory effect on cancer cells (WST assay), Example 2.3; details: for IC50: HuH-7 cells, WST assay, concentrations 0-50 μM, control 0.1% DMSO; for IC50 compared with IC-2: comparison with IC-2
Protocol: HuH-7 cells, a human liver cancer cell line, were cultured on 10-cm cell culture dishes (TPP Techno Plastic Products AG, Trasadingen, Switzerland) by using DMEM under conditions at 5% CO2, 37° C., and 100% humidity. When the cells were 70 to 90% confluent, 200 μL of 0.25% Trypsin/1 mM EDTA solution, which had been prepared by diluting the stock solution 10-fold with PBS (−), was added to detach the cells. Then, the cells were centrifuged at 1000 rpm for 3 min at room temperature. The cells recovered were subcultured at a 1:4 split ratio.
First, 70 to 90% confluent HuH-7 cells were harvested and seeded (n=3) at 5×10^3 cells/well of a 96-well plate (TPP). After 24 h, each compound was added to the cells and the mixture was cultured at 37° C. The concentrations of each compound were 0, 10, 20, 30, 40, and 50 μM. For IC-2-506-1, however, the concentrations used were 0, 10, 20, 25, 30, 40, and 50 μM. Each control sample (0 μM) used was 0.1% DMSO, a solvent for each compound.
Next, 0, 24, 48, and 96 h after the compound treatment, 100 μIL of DMEM-diluted 10% Cell Counting Kit-8 (DOJINDO LABORATORIES, Kumamoto) was added. The mixture was incubated at 37° C. for 60 min and its absorbance (at a measurement wavelength of 450 nm/control wavelength of 600 nm) was measured by using a Sunrise Rainbow RC (Tecan Group Ltd., Mannedorf, Switzerland). Absorbance for the cells alone was calculated by subtracting, from the reading obtained, absorbance for 10% Cell Counting Kit-8 alone.
The “*” in figures indicates a significant difference of p<0.05 between 0.1% DMSO and each compound; and the “**” indicates a significant difference of p<0.01 (the same applies to all the figures in Examples).

mesenchymal stem cell = test: Hepatocyte differentiation-inducing effect, summary statements on Example 4 (readout not specified); details: low concentration
Excerpt: Albumin, a hepatocyte marker, was used as an indicator, and RNA was collected from cells treated with each compound. Next, a hepatocyte differentiation-inducing effect was examined by real-time RT-PCR. The concentrations of the respective compounds were as described in FIG. 35. Each control sample used was 0.1% DMSO, a solvent for each compound.
By using urea synthesis, a hepatocyte function, as an indicator, a hepatocyte differentiation-inducing effect of each compound was investigated.
The cells treated with each compound were subjected to immunofluorescence analysis of albumin, a hepatocyte marker, to investigate a hepatocyte differentiation-inducing effect. The concentrations of the respective compounds were as described in FIG. 37. Each control sample used was 0.1% DMSO, a solvent for each compound.
By using glycogen synthesis, a hepatocyte function, as an indicator, a hepatocyte differentiation-inducing effect of each compound was investigated.

LX-2 cells [4] = test: Growth inhibitory effect on LX-2 cells; details: 100 μM
Wnt/β-catenin signaling [5] = test: Inhibitory effect on Wnt/β-catenin signaling in mesenchymal stem cells (E7-TCF4 luciferase)
Protocol: A pTCF4-CMVpro-GL4.20 plasmid vector, having 3 copies of TCF4 motifs (CCT TTG ATC) upstream of aCMV promoter in a multiple cloning site of pGL4.20 (Promega Corp., Fitchburg, Wis.), was linearized and stably transfected into UE7T-13 cells to prepare E7-TCF4 cells. Also, a pCMVpro-GL4.20 plasmid vector, having a CMV promoter in a multiple cloning site of pGL4.20, was linearized and stably transfected into UE7T-13 cells. The resulting stable cells (E7-CMV cells) were cultured, like UE7T-13 cells, in 10% FBS/DMEM containing 0.25 μg/mL puromycin.
UE7T-13 cells were used to measure Wnt/β-catenin signaling activity. The concentrations of the respective compounds were as described in FIG. 42. Each control sample used was 0.1% DMSO, a solvent for each compound.
First, 70 to 90% confluent E7-TCF4 cells and E7-CMV cells were harvested and seeded (n=3) at 1.6758×10^4 cells/well of a 24-well plate (9.0×10^3 cells/cm^2). One day after that, each compound was added to the cells and the mixture was cultured at 37° C. Day 4 after the compound addition, the culture medium was changed.
At day 1, 4, or 8 after the compound treatment, the culture medium was discarded, and 100 μL of room temperature 5×Passive Lysis Buffer (PLB), which had been diluted 5-fold with MilliQ water, was added to each well. Next, the plate was shaken at room temperature for 15 min and was then frozen at −30° C. overnight. A Luciferase Assay Substrate was diluted with 10 mL of room temperature Luciferase Assay Buffer II to prepare Luciferase Assay Reagent II (LARII). The frozen PLB lysate samples were thawed and permeabilized for 15 min. Then, 10 μL aliquots were added to wells of a 96-well white plate. While 50 μL aliquots of LARII were each added to each well, luminescence was quantified by using a 1420 multi-label counter ARVO MX to determine firefly luciferase activity.

SMILES | IC50 (HuH-7 cells) [µM] | IC50 compared with IC-2 (HuH-7 cells) | hepatocyte-inducing effect at low concentration (mesenchymal stem cell) | inhibitory effect on cancer stem cells compared with IC-2 [1] | inhibitory effect on Wnt/β-catenin signaling pathway in liver cancer cells compared with IC-2 (Wnt/β-catenin signaling [2]) | anti-fibrosis effect compared with IC-2, lower concentration (LX-2 cells [3]) | growth inhibitory effect on LX-2 cells (LX-2 cells [4]) | further results
NC(=O)N1CCC(=O)N2C(Cc3ccccc3)C(=O)N(Cc3cccc4ccccc34)CC12 (stereo not shown) [Compound 9b-CONH2] | – | – | – | – | – | – | Neither 100 μM of 9b nor 9b-CONH2 exhibited a growth inhibitory effect | –
O=C1C(Cc2ccccc2)N2C(=O)CCNC2CN1Cc1cccc2ccccc12 (stereo not shown) [Compound 9b] | – | – | – | – | – | – | Neither 100 μM of 9b nor 9b-CONH2 exhibited a growth inhibitory effect | inhibitory effect on Wnt/β-catenin signaling in mesenchymal stem cells (Wnt/β-catenin signaling [5]; E7-TCF4 cells, day 8 after compound addition, compared with control 0.1% DMSO): all the compounds except for IC-2-Ar-OMe, 9b, and 7c-NT exhibited a significant inhibitory effect

Now from value to compound, other results behind:

IC50 (HuH-7 cells) [µM] | IC50 compared with IC-2 (HuH-7 cells) | hepatocyte-inducing effect at low concentration (mesenchymal stem cell) | SMILES | inhibitory effect on cancer stem cells compared with IC-2 [1] | inhibitory effect on Wnt/β-catenin signaling pathway in liver cancer cells compared with IC-2 (Wnt/β-catenin signaling [2]) | anti-fibrosis effect compared with IC-2, lower concentration (LX-2 cells [3]) | growth inhibitory effect on LX-2 cells (LX-2 cells [4]) | further results
22.2 | lower IC50 than IC-2 | exerted a hepatocyte-inducing effect | O=C1C(Cc2ccccc2)N2C(=O)CCN(C(=O)NCc3ccc(F)cc3)C2CN1Cc1cccc2ccccc12 (stereo not shown) [IC-2-F] | more potent inhibitory effect on cancer stem cells than IC-2 | more potent inhibitory effect | more potent anti-fibrosis effect | – | –
11.8 | lower IC50 than IC-2 | exerted a hepatocyte-inducing effect | CC(C)(C)[Si](C)(C)Oc1ccc(CNC(=O)N2CCC(=O)N3C(Cc4ccccc4)C(=O)N(Cc4cccc5ccccc45)CC23)cc1 (stereo not shown) [IC-2-OTBS] | – | – | more potent anti-fibrosis effect | – | inhibitory effect on cancer stem cells at a concentration lower than that of IC-2 ([1]; concentration even lower than that of IC-2): exerted an inhibitory effect on cancer stem cells; anti-tumor effect compared with IC-2 (HuH-7 cells; at a concentration lower than that of IC-2): more potent anti-tumor effect
28.1 | – | – | O=C1C(Cc2ccccc2)N2C(=O)CCN(C(=O)NCc3ccc([N+](=O)[O-])cc3)C2CN1Cc1cccc2ccccc12 (stereo not shown) [IC-2-NO2] | more potent inhibitory effect on cancer stem cells than IC-2 | more potent inhibitory effect | – | – | inhibitory effect on Wnt/β-catenin signaling pathway in mesenchymal stem cells compared with IC-2 (Wnt/β-catenin signaling [5]; concentration equal to or lower than that of IC-2): more potent inhibitory effect
